Experimental data from US20260347361A1, “LRRK2 INHIBITORS AND USES THEREOF” (NEURON23, INC, priority 2022, published 2026).

Molecular target: T1, wt human LRRK2 (Homo sapiens, UniProt Q5S007)
T1 construct: wt human LRRK2, catalytic site, catalytic site (ThermoFisher/USA); purchased ThermoFisher
Assay: TR-FRET LanthaScreen Tb Kinase Activity Assay, inhibition of LRRK2 kinase
Assay type: biochemical
Settings: 2 nM wt human LRRK2, 400 nM fluorescein-ERM (LRRKtide) peptide, 38 µM ATP, 15 min pre-incubation, 120 min at room temperature
Method: In Table 2, activity is provided as the following: “+++”=IC50 less than 50 nM; “++”=IC50 between 50 nM and 200 nM; “+”=IC50> or =200 nM.
The compounds listed in Table 2 were tested for their inhibitory effect on LRRK2 kinase according to the following procedures.
The protocol for basic TR-FRET LanthaScreen Tb Kinase Activity Assay inhibitor studies were as follows. LanthaScreen Kinase Activity Assays (ThermoFisher/USA) to evaluate inhibitors were performed by addition of 100 nl of test compound in corresponding DMSO dilutions/5 μl of kinase/fluorescein-ERM(LRRKtide) peptide mixture, Compound & kinase were pre-incubated for 15 minutes, then 5 μl of ATP into 384 well small volume plates. After incubation for 120 minutes at room temperature, the detection reagents containing Tb-anti-pLRRKtide antibody were added to monitor phosphorylation level of peptide. Then, after 60 min minutes incubation at room temperature plates were read in Envision. Data analysis of emission ratios was according to LanthaScreen Tb Kinase Activity Assay protocol.
Kinase and assay components were adjusted to final concentrations according to the kit protocol. For LRRK2: 2 nM wt human LRRK2, catalytic site, catalytic site (ThermoFisher/USA), 400 nM peptide, 38 µM ATP in 1× Kinase Buffer A.
Basic protocol for TR-FRET LanthaScreen Tb Kinase Activity Assay inhibitor studies involved two steps:
Enzymatic step: Addition of […] of test compound in corresponding DMSO dilutions, 5 μL of kinase/substrate mixture, 5 μL of ATP into 384 well small volume plates. Incubation for 120 minutes at room temperature.
Detection step: Addition of 10 μL EDTA & antibody, read plate after 60 minutes. Data analysis of emission ratios according to KinEASE assay protocol.
Kinase and assay components were adjusted to final concentrations according to the kit protocol.

T1 sequence (Q5S007 970-2527 limits assumed): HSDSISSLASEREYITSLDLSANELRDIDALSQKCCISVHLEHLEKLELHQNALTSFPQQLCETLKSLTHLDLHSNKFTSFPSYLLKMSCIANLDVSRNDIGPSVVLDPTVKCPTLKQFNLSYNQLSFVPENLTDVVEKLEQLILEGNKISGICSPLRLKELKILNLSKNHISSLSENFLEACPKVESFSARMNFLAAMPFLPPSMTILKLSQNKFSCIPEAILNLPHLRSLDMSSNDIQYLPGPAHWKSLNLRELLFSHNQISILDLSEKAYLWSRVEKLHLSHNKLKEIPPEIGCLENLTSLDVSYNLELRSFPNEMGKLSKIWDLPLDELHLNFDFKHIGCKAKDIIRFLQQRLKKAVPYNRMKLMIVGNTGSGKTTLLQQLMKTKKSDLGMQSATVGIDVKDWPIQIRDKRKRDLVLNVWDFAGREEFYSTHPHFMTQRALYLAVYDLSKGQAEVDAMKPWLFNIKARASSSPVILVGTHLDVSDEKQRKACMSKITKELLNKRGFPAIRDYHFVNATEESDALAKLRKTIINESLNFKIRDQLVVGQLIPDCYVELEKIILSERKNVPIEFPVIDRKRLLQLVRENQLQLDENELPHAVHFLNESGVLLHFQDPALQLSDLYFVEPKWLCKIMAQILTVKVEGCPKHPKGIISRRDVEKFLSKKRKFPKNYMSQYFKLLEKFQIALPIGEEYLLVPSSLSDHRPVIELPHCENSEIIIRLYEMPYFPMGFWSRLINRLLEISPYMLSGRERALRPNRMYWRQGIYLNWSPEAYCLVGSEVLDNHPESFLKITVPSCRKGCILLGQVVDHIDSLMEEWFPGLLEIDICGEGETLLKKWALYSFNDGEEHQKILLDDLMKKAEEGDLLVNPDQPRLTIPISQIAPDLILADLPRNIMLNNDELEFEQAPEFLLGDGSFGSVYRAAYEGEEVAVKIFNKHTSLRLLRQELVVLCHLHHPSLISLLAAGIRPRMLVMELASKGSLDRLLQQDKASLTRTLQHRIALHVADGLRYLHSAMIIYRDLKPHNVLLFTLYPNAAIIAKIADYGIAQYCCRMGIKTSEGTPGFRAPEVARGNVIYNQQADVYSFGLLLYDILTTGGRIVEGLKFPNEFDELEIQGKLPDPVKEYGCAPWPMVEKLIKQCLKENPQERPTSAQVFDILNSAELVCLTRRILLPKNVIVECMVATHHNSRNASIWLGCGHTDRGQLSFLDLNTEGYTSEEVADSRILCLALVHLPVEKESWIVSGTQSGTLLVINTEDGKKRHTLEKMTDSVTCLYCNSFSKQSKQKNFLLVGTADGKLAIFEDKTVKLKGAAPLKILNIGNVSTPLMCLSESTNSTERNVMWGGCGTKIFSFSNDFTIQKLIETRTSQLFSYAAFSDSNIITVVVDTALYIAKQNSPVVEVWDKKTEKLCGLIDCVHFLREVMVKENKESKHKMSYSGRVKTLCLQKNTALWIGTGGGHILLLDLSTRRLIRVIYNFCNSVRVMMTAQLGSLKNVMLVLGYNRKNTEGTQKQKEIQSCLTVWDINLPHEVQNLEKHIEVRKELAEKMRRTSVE

Row | IC50 [nM] | SMILES
1 | < 50 | Cc1cnn2c1N=C(c1c(F)cccc1F)Nc1cnc(N3CCOCC3)cc1-2 [4-(5-(2,6-difluorophenyl)-3-methyl-6H-pyrazolo[1,5-a]pyrido[3,4-f][1,3,5]triazepin-9-yl)morpholine]
2 | > 200 | O=C(O)c1ccc2c(c1)-n1ncc(Cl)c1N=C(c1c(F)cccc1F)N2 [Methyl 3-chloro-5-(2,6-difluorophenyl)-6H-pyrazolo[1,5-a][1,3,5]benzotriazepine-9-carboxylic acid]
3 | < 50 | Fc1cccc(F)c1C1=Nc2c(Cl)cnn2-c2cc(N3CC[C@H](F)C3)ccc2N1 [3-chloro-5-(2,6-difluorophenyl)-9-[(3S)-3-fluoropyrrolidin-1-yl]-6H-pyrazolo[1,5-a][1,3,5]benzotriazepine]
4 | 50 to 200 | CC(C)(O)c1ccc2c(c1)-n1ncc(Cl)c1N=C(c1c(F)cccc1F)N2 [Methyl 2-[3-chloro-5-(2,6-difluorophenyl)-6H-pyrazolo[1,5-a][1,3,5]benzotriazepin-9-yl]propan-2-ol]
5 | < 50 | O=S1(=O)CCN(c2ccc3c(c2)-n2ncc(Cl)c2N=C(c2c(F)cccc2F)N3)CC1
6 | < 50 | CN1CCN(c2ccc3c(c2)-n2ncc(Cl)c2N=C(c2c(F)cccc2F)N3)CC1 [3-chloro-5-(2,6-difluorophenyl)-9-(4-methylpiperazin-1-yl)-6H-pyrazolo[1,5-a][1,3,5]benzotriazepine]
7 | < 50 | C[C@H]1COCCN1c1ccc2c(c1)-n1ncc(Cl)c1N=C(c1c(F)cccc1F)N2 [(3S)-4-[3-chloro-5-(2,6-difluorophenyl)-6H-pyrazolo[1,5-a][1,3,5]benzotriazepin-9-yl]-3-methyl-morpholine]
